Measurements reported in US20260053932A1, “COMPOUNDS AND METHODS FOR THE TARGETED DEGRADATION OF ANDROGEN RECEPTOR AND ASSOCIATED METHODS OF USE” (Arvinas Operations, Inc., priority 2020, published 2026).

Test system: androgen receptor (AR) in LNCaP and/or VCaP cells
Assay: Androgen Receptor ELISA assay (AR degradation)
Format: cell-based
Details: degradation of AR ELISA in LNCaP and/or VCaP cells; Table 2C; read-out: DC50 Code*
Procedure, shortened: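 VCaP cells grown ≥3 days, then treated 5 h with compound in media containing 1 nM R1881 (10× stock). Cells lysed and AR quantified by sandwich ELISA (mouse AR detection Ab, HRP anti-mouse, TMB). DC50 and Dmax derived from AR degradation.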

SMILES	DC50 [nM]
COc1cc(O[C@H]2C(C)(C)[C@H](NC(=O)c3ccc(N4CCC(CN(CCN5CCOCC5)[C@H]5C[C@H](Oc6ccc7c(c6)C(=O)N(C6CCC(=O)NC6=O)C7=O)C5)CC4)cc3)C2(C)C)ccc1C#N (some centres unmarked) [compound 204, N-((1r,3r)-3-(4-cyano-3-methoxyphenoxy)-2,2,4,4-tetramethylcyclobutyl)-4-(4-((((1r,3r)-3-((2-(2,6-dioxopiperidin-3-yl)-1,3-dioxoisoindolin-5-yl)oxy)cyclobutyl)(2-morpholinoethyl)amino)methyl)piperidin-1-yl)benzamide]	< 1
Cc1cc(O[C@H]2C(C)(C)[C@H](NC(=O)c3ccc(N4CCC(CN(C(C)C)[C@H]5C[C@H](Oc6ccc7c(c6)C(=O)N([C@H]6CCC(=O)NC6=O)C7=O)C5)CC4)cc3)C2(C)C)cc(C)c1C#N [compound 205, N-((1r,3r)-3-(4-cyano-3,5-dimethylphenoxy)-2,2,4,4-tetramethylcyclobutyl)-4-(4-((((1S,3r)-3-((2-((S)-2,6-dioxopiperidin-3-yl)-1,3-dioxoisoindolin-5-yl)oxy)cyclobutyl) (isopropyl)amino)methyl)piperidin-1-yl)benzamide]	< 1
CCN(CC1CCN(c2cnc(C(=O)N[C@H]3C(C)(C)[C@H](Oc4cc(C)c(C#N)c(C)c4)C3(C)C)cn2)CC1)[C@H]1C[C@H](Oc2ccc3c(c2)C(=O)N(C2CCC(=O)NC2=O)C3=O)C1 (some centres unmarked) [compound 206, N-((1r,3r)-3-(4-cyano-3,5-dimethylphenoxy)-2,2,4,4-tetramethylcyclobutyl)-5-(4-((((1r,3r)-3-((2-(2,6-dioxopiperidin-3-yl)-1,3-dioxoisoindolin-5-yl)oxy)cyclobutyl) (ethyl)amino)methyl)piperidin-1-yl)pyrazine-2-carboxamide]	< 1
COc1cc(O[C@H]2C(C)(C)[C@H](NC(=O)c3cnc(N4CCC(CN(CCN5CCOCC5)[C@H]5C[C@H](Oc6ccc7c(c6)C(=O)N(C6CCC(=O)NC6=O)C7=O)C5)CC4)cn3)C2(C)C)ccc1C#N (some centres unmarked) [compound 209, N-((1r,3r)-3-(4-cyano-3-methoxyphenoxy)-2,2,4,4-tetramethylcyclobutyl)-5-(4-((((1r,3r)-3-((2-(2,6-dioxopiperidin-3-yl)-1,3-dioxoisoindolin-5-yl)oxy)cyclobutyl)(2-morpholinoethyl)amino)methyl)piperidin-1-yl)pyrazine-2-carboxamide]	< 1
COc1cc(O[C@H]2C[C@H](N(CCN3CCOCC3)CC3CCN(c4cnc(C(=O)N[C@H]5C(C)(C)[C@H](Oc6cc(C)c(C#N)c(C)c6)C5(C)C)cn4)CC3)C2)cc2c1C(=O)N(C1CCC(=O)NC1=O)C2=O (some centres unmarked) [compound 210, N-((1r,3r)-3-(4-cyano-3,5-dimethylphenoxy)-2,2,4,4-tetramethylcyclobutyl)-5-(4-((((1r,3r)-3-((2-(2,6-dioxopiperidin-3-yl)-7-methoxy-1,3-dioxoisoindolin-5-yl)oxy)cyclobutyl)(2-morpholinoethyl)amino)methyl)piperidin-1-yl)pyrazine-2-carboxamide]	< 1
Cc1cc(O[C@H]2C(C)(C)[C@H](NC(=O)c3ccc(N4CCC(CN5CCOC[C@@H]5COc5ccc6c(c5)C(=O)N(C5CCC(=O)NC5=O)C6=O)CC4)cc3)C2(C)C)cc(C)c1C#N (stereo partly drawn) [compound 213, N-((1r,3R)-3-(4-cyano-3,5-dimethylphenoxy)-2,2,4,4-tetramethylcyclobutyl)-4-(4-(((3R)-3-(((2-(2,6-dioxopiperidin-3-yl)-1,3-dioxoisoindolin-5-yl)oxy)methyl)morpholino)methyl)piperidin-1-yl)benzamide]	< 1
CC1(C)[C@H](NC(=O)c2ccc(N3CCC(CN(CCN4CCOCC4)[C@H]4C[C@H](Oc5ccc6c(c5)C(=O)N(C5CCC(=O)NC5=O)C6=O)C4)CC3)cc2)C(C)(C)[C@H]1Oc1ccc(C#N)c(C#N)c1 (some centres unmarked) [compound 214, N-((1r,3r)-3-(3,4-dicyanophenoxy)-2,2,4,4-tetramethylcyclobutyl)-4-(4-((((1r,3r)-3-((2-(2,6-dioxopiperidin-3-yl)-1,3-dioxoisoindolin-5-yl)oxy)cyclobutyl)(2-morpholinoethyl)amino)methyl)piperidin-1-yl)benzamide]	< 1
COc1cc(OCCN2CCOC3(CCN(c4ccc(C(=O)N[C@H]5C(C)(C)[C@H](Oc6cc(C)c(C#N)c(C)c6)C5(C)C)cc4)CC3)C2)cc2c1C(=O)N(C1CCC(=O)NC1=O)C2=O (some centres unmarked) [compound 215, N-((1r,3r)-3-(4-cyano-3,5-dimethylphenoxy)-2,2,4,4-tetramethylcyclobutyl)-4-(4-(2-((2-(2,6-dioxopiperidin-3-yl)-7-methoxy-1,3-dioxoisoindolin-5-yl)oxy)ethyl)-1-oxa-4,9-diazaspiro[5.5]undecan-9-yl)benzamide]	< 1
CCOc1cc(O[C@H]2C(C)(C)[C@H](NC(=O)c3ccc(N4CC(CN(C(C)C)[C@H]5C[C@H](Oc6ccc7c(c6)C(=O)N(C6CCC(=O)NC6=O)C7=O)C5)C4)cc3)C2(C)C)ccc1C#N (some centres unmarked) [compound 217, N-((1r,3r)-3-(4-cyano-3-ethoxyphenoxy)-2,2,4,4-tetramethylcyclobutyl)-4-(3-((((1r,3r)-3-((2-(2,6-dioxopiperidin-3-yl)-1,3-dioxoisoindolin-5-yl)oxy)cyclobutyl) (isopropyl)amino)methyl)azetidin-1-yl)benzamide]	< 1
CC1(C)[C@H](NC(=O)c2ccc(N3CCC(CN(CCN4CCOCC4)[C@H]4C[C@H](Oc5ccc6c(c5)C(=O)N(C5CCC(=O)NC5=O)C6=O)C4)CC3)cc2)C(C)(C)[C@H]1Oc1ccc(C#N)c(Cl)c1 (some centres unmarked) [compound 219, N-((1r,3r)-3-(3-chloro-4-cyanophenoxy)-2,2,4,4-tetramethylcyclobutyl)-4-(4-((((1r,3r)-3-((2-(2,6-dioxopiperidin-3-yl)-1,3-dioxoisoindolin-5-yl)oxy)cyclobutyl)(2-morpholinoethyl)amino)methyl)piperidin-1-yl)benzamide]	< 1
Cc1cc(O[C@H]2C(C)(C)[C@H](NC(=O)c3ccc(N4CCC(CN5CCOC[C@H]5COc5ccc6c(c5)C(=O)N(C5CCC(=O)NC5=O)C6=O)CC4)cc3)C2(C)C)cc(C)c1C#N (stereo partly drawn) [compound 221, N-((1r,3S)-3-(4-cyano-3,5-dimethylphenoxy)-2,2,4,4-tetramethylcyclobutyl)-4-(4-(((3S)-3-(((2-(2,6-dioxopiperidin-3-yl)-1,3-dioxoisoindolin-5-yl)oxy)methyl)morpholino)methyl)piperidin-1-yl)benzamide]	< 1
Cc1cc(O[C@H]2C(C)(C)[C@H](NC(=O)c3cnc(N4CCC(CN(CCN5CCOCC5)[C@H]5C[C@H](Oc6ccc7c(c6)C(=O)N(C6CCC(=O)NC6=O)C7=O)C5)CC4)cn3)C2(C)C)cc(C)c1C#N (some centres unmarked) [compound 230, N-((1r,3r)-3-(4-cyano-3,5-dimethylphenoxy)-2,2,4,4-tetramethylcyclobutyl)-5-(4-((((1r,3r)-3-((2-(2,6-dioxopiperidin-3-yl)-1,3-dioxoisoindolin-5-yl)oxy)cyclobutyl)(2-morpholinoethyl)amino)methyl)piperidin-1-yl)pyrazine-2-carboxamide]	< 1
COc1cc(O[C@H]2C[C@H](N(CC3(F)CCN(c4ncc(C(=O)N[C@H]5C(C)(C)[C@H](Oc6cc(C)c(C#N)c(C)c6)C5(C)C)cn4)CC3)C(C)C)C2)cc2c1C(=O)N(C1CCC(=O)NC1=O)C2=O (some centres unmarked) [compound 231, N-((1r,3r)-3-(4-cyano-3,5-dimethylphenoxy)-2,2,4,4-tetramethylcyclobutyl)-2-(4-((((1r,3r)-3-((2-(2,6-dioxopiperidin-3-yl)-7-methoxy-1,3-dioxoisoindolin-5-yl)oxy)cyclobutyl) (isopropyl)amino)methyl)-4-fluoropiperidin-1-yl)pyrimidine-5-carboxamide]	< 1
CC1(C)[C@H](NC(=O)c2cnc(N3CCC(CN(CCN4CCOCC4)[C@H]4C[C@H](Oc5ccc6c(c5)C(=O)N(C5CCC(=O)NC5=O)C6=O)C4)CC3)cn2)C(C)(C)[C@H]1Oc1ccc(C#N)c(C#N)c1 (some centres unmarked) [compound 233, N-((1r,3r)-3-(3,4-dicyanophenoxy)-2,2,4,4-tetramethylcyclobutyl)-5-(4-((((1r,3r)-3-((2-(2,6-dioxopiperidin-3-yl)-1,3-dioxoisoindolin-5-yl)oxy)cyclobutyl)(2-morpholinoethyl)amino)methyl)piperidin-1-yl)pyrazine-2-carboxamide]	< 1
CC1(C)[C@H](NC(=O)c2ccc(N3CCC(CN4CCN(c5ccc6c(c5)C(=O)N([C@@]5(C#N)CCC(=O)NC5=O)C6)CC4)CC3)cc2)C(C)(C)[C@H]1Oc1ccc(C#N)c(Cl)c1 [compound 234, N-((1r,3r)-3-(3-chloro-4-cyanophenoxy)-2,2,4,4-tetramethylcyclobutyl)-4-(4-((4-(2-((R)-3-cyano-2,6-dioxopiperidin-3-yl)-3-oxoisoindolin-5-yl)piperazin-1-yl)methyl)piperidin-1-yl)benzamide]	< 1
COc1cc(O[C@H]2C(C)(C)[C@H](NC(=O)c3ccc(N4CCC(CN(CC(F)F)[C@H]5C[C@H](Oc6cc(OC)c7c(c6)C(=O)N(C6CCC(=O)NC6=O)C7=O)C5)CC4)cc3)C2(C)C)ccc1C#N (some centres unmarked) [compound 235, N-((1r,3r)-3-(4-cyano-3-methoxyphenoxy)-2,2,4,4-tetramethylcyclobutyl)-4-(4-(((2,2-difluoroethyl)((1r,3r)-3-((2-(2,6-dioxopiperidin-3-yl)-7-methoxy-1,3-dioxoisoindolin-5-yl)oxy)cyclobutyl)amino)methyl)piperidin-1-yl)benzamide]	< 1
CC1(C)[C@H](NC(=O)c2cnc(N3CCC(CN(CCN4CCOCC4)[C@H]4C[C@H](Oc5ccc6c(c5)C(=O)N(C5CCC(=O)NC5=O)C6=O)C4)CC3)cn2)C(C)(C)[C@H]1Oc1ccc(C#N)c(Cl)c1 (some centres unmarked) [compound 237, N-((1r,3r)-3-(3-chloro-4-cyanophenoxy)-2,2,4,4-tetramethylcyclobutyl)-5-(4-((((1r,3r)-3-((2-(2,6-dioxopiperidin-3-yl)-1,3-dioxoisoindolin-5-yl)oxy)cyclobutyl)(2-morpholinoethyl)amino)methyl)piperidin-1-yl)pyrazine-2-carboxamide]	1 to 10
